A word on the pIC50: it is the IC50 on a negative log10 scale, so that one unit is a factor of ten.

The target of this assay is 15-PGDH/HPGD (Homo sapiens (Human), UniProt P15428). Description: hPGDH inhibitor screening biochemical assay. The note with it: 10 nM 15-PGDH/HPGD, 15 μM PGE2, 0.25 mM NAD; read-out: hPGDH: Average IC50. In outline: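 10 nM recombinant 15-PGDH was preincubated with compound (10-point) for 10 min at 37° C. in 50 mM Tris-HCl pH 7.5, 0.01% Tween 20. Then 15 μM PGE2 and 0.25 mM NAD+ were added for 10 min at rt. NADH fluorescence (ex/em 340/485 nm) gave % inhibition versus 1% DMSO and a four-parameter IC50.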
Sequence of 15-PGDH/HPGD (P15428 whole entry): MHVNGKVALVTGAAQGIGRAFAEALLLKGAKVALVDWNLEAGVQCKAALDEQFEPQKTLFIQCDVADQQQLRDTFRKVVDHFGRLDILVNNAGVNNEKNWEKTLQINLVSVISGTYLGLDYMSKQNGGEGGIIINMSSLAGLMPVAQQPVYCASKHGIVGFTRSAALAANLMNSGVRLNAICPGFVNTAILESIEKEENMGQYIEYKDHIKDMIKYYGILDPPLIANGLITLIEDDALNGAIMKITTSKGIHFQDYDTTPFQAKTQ

Each structure is given as a SMILES string. pIC50: −log10 of the molar value. A value given as a limit tells only on which side of the number the result lay.

As to `O=C(NC1CCNCC1)c1ccc(-n2ccc3cc(C(=O)N4CCC(F)(F)CC4)cnc32)cc1` [A-226], the pIC50 was above 7.00. For the molecule `O=C(NC1CNC1)c1ccc(-n2ccc3cc(C(=O)N4CCC(F)(F)CC4)cnc32)cc1` [A-227], the pIC50 was above 7.00. The result for `O=C(O)Cc1ccc(-n2ccc3cc(C(=O)N4CCC(F)(F)CC4)cnc32)cc1` [A-230, 2-(4-(5-(4,4-difluoropiperidine-1-carbonyl)-1H-pyrrolo[2,3-b]pyridin-1-yl)phenyl)acetic acid] reads above 7.00; that for `CS(=O)(=O)NC(=O)c1ccc(-n2ccc3cc(C(=O)N4CCC(F)(F)CC4)cnc32)cc1` [A-232, 4-(5-(4,4-difluoropiperidine-1-carbonyl)-1H-pyrrolo[2,3-b]pyridin-1-yl)-N-(methylsulfonyl)benzamide], above 7.00. The result for `O=C(NC1(C(=O)O)CC1)c1ccc(-n2ccc3cc(C(=O)N4CCC(F)(F)CC4)cnc32)cc1` [A-233] reads above 7.00; that for `O=C(NC1(C(=O)O)CC1)c1ccc(-n2ccc3cc(C(=O)N4CCC(F)(F)CC4)cnc32)cn1` [A-234, 1-(5-(5-(4,4-difluoropiperidine-1-carbonyl)-1H-pyrrolo[2,3-b]pyridin-1-yl)picolinamido)cyclopropane-1-carboxylic acid], above 7.00; that for `CC(C)(CC(=O)O)NC(=O)c1ccc(-n2ccc3cc(C(=O)N4CCC(F)(F)CC4)cnc32)cc1` [A-235], above 7.00. In the case of `O=C(O)[C@@H]1CCCN1C(=O)c1ccc(-n2ccc3cc(C(=O)N4CCC(F)(F)CC4)cnc32)cc1` [A-236] it was above 7.00; in that of `CCC(CC)NC(=O)c1ccc(-n2ccc3cc(C(=O)N4CCC(F)(F)CC4)cnc32)cn1` [A-239, 5-(5-(4,4-difluoropiperidine-1-carbonyl)-1H-pyrrolo[2,3-b]pyridin-1-yl)-N-(pentan-3-yl) picolinamide], above 7.00. For the molecule `CC(C)(C)CNC(=O)c1ccc(-n2ccc3cc(C(=O)N4CCC(F)(F)CC4)cnc32)cn1` [A-240, 5-(5-(4,4-difluoropiperidine-1-carbonyl)-1H-pyrrolo[2,3-b]pyridin-1-yl)-N-neopentylpicolinamide], the negative logarithm of the IC50 (pIC50) is above 7.00. In the case of `N#Cc1ccc(-n2ccc3cc(C(=O)N4CCC(F)(F)CC4)cnc32)cc1` [A-241, 4-(5-(4,4-difluoropiperidine-1-carbonyl)-1H-pyrrolo[2,3-b]pyridin-1-yl)benzonitrile] it was above 7.00.

On to `N#Cc1ccc(-n2ccc3cc(C(=O)N4CCC(F)(F)CC4)cnc32)cc1O` [A-243], for which the negative logarithm of the IC50 (pIC50) was above 7.00. The result for `CC(C)(O)CCc1cc2cc(C(=O)N3CCC(F)(F)CC3)cnc2n1-c1ccc(C#N)cc1` [A-244, 4-(5-(4,4-difluoropiperidine-1-carbonyl)-2-(3-hydroxy-3-methylbutyl)-1H-pyrrolo[2,3-b]pyridin-1-yl)benzonitrile] reads above 7.00; that for `CC(C)(C)NC(=O)c1cncc(-n2ccc3cc(C(=O)N4CCC(F)(F)CC4)cnc32)c1` [A-246, N-(tert-butyl)-5-(5-(4,4-difluoropiperidine-1-carbonyl)-1H-pyrrolo[2,3-b]pyridin-1-yl)nicotinamide], above 7.00. In the case of `NC(=O)[C@@H]1CCCN1C(=O)c1ccc(-n2ccc3cc(C(=O)N4CCC(F)(F)CC4)cnc32)cc1` [A-248, (S)-1-(4-(5-(4,4-difluoropiperidine-1-carbonyl)-1H-pyrrolo[2,3-b]pyridin-1-yl)benzoyl)pyrrolidine-2-carboxamide] it was above 7.00; in that of `O=C(c1ccc(-n2ccc3cc(C(=O)N4CCC(F)(F)CC4)cnc32)cc1)N(CCO)CCO` [A-249], above 7.00.

Take `O=C(c1cnc2c(ccn2-c2ccc(-c3nnn[nH]3)nc2)c1)N1CCC(F)(F)CC1` [A-250, (1-(6-(1H-tetrazol-5-yl)pyridin-3-yl)-1H-pyrrolo[2,3-b]pyridin-5-yl)(4,4-difluoropiperidin-1-yl)methanone]: the pIC50 was above 7.00.
